Measurements taken from the NIST ThermoML archive (doi:10.1016/j.jct.2005.07.011).
Numbers after ± are expanded uncertainties.

Experiment: excess molar enthalpy (molar enthalpy of mixing); xn = mol fraction of the nth substance listed
Details: Liquid, Flow calorimetry

Work on COC(=O)OC [dimethyl carbonate] + CCCCO yielded an excess molar enthalpy (298.15 K, 1000 kPa, x1 = 0.05) of 0.127 ± 0.0043 kcal/mol, an excess molar enthalpy (298.15 K, 1000 kPa, x1 = 0.1) of 0.232 ± 0.0043 kcal/mol and an excess molar enthalpy (298.15 K, 1000 kPa, x1 = 0.15) of 0.317 ± 0.0043 kcal/mol. It also gave an excess molar enthalpy (298.15 K, 1000 kPa, x1 = 0.2) of 0.383 ± 0.00454 kcal/mol, an excess molar enthalpy (298.15 K, 1000 kPa, x1 = 0.25) of 0.435 ± 0.00454 kcal/mol and an excess molar enthalpy (298.15 K, 1000 kPa, x1 = 0.3) of 0.4733 ± 0.00454 kcal/mol. The excess molar enthalpy (298.15 K, 1000 kPa, x1 = 0.35) was 0.5011 ± 0.00478 kcal/mol, the excess molar enthalpy (298.15 K, 1000 kPa, x1 = 0.4) was 0.5163 ± 0.00478 kcal/mol and the excess molar enthalpy (298.15 K, 1000 kPa, x1 = 0.45) was 0.5253 ± 0.00454 kcal/mol. It also gave an excess molar enthalpy (298.15 K, 1000 kPa, x1 = 0.5) of 0.5258 ± 0.00454 kcal/mol, an excess molar enthalpy (298.15 K, 1000 kPa, x1 = 0.55) of 0.5155 ± 0.0043 kcal/mol and an excess molar enthalpy (298.15 K, 1000 kPa, x1 = 0.6) of 0.4945 ± 0.0043 kcal/mol. The excess molar enthalpy (298.15 K, 1000 kPa, x1 = 0.65) was 0.4683 ± 0.00406 kcal/mol, the excess molar enthalpy (298.15 K, 1000 kPa, x1 = 0.7) was 0.4353 ± 0.00359 kcal/mol and the excess molar enthalpy (298.15 K, 1000 kPa, x1 = 0.75) was 0.3916 ± 0.00335 kcal/mol. For the same molecule, the excess molar enthalpy (298.15 K, 1000 kPa, x1 = 0.8) was 0.3364 ± 0.00287 kcal/mol, the excess molar enthalpy (298.15 K, 1000 kPa, x1 = 0.85) was 0.2695 ± 0.00229 kcal/mol and the excess molar enthalpy (298.15 K, 1000 kPa, x1 = 0.9) was 0.1907 ± 0.00167 kcal/mol. The excess molar enthalpy (298.15 K, 1000 kPa, x1 = 0.95) was 0.09904 ± 0.000956 kcal/mol, the excess molar enthalpy (313.15 K, 100 kPa, x1 = 0.049) was 0.125 ± 0.00454 kcal/mol and the excess molar enthalpy (313.15 K, 100 kPa, x1 = 0.099) was 0.235 ± 0.00454 kcal/mol. The excess molar enthalpy (313.15 K, 100 kPa, x1 = 0.149) was 0.329 ± 0.0043 kcal/mol, the excess molar enthalpy (313.15 K, 100 kPa, x1 = 0.199) was 0.404 ± 0.0043 kcal/mol and the excess molar enthalpy (313.15 K, 100 kPa, x1 = 0.25) was 0.4635 ± 0.0043 kcal/mol. The excess molar enthalpy (313.15 K, 100 kPa, x1 = 0.299) was 0.5061 ± 0.0043 kcal/mol, the excess molar enthalpy (313.15 K, 100 kPa, x1 = 0.351) was 0.5395 ± 0.00454 kcal/mol and the excess molar enthalpy (313.15 K, 100 kPa, x1 = 0.4) was 0.5598 ± 0.00454 kcal/mol. It also gave an excess molar enthalpy (313.15 K, 100 kPa, x1 = 0.449) of 0.5716 ± 0.00454 kcal/mol, an excess molar enthalpy (313.15 K, 100 kPa, x1 = 0.499) of 0.5732 ± 0.00454 kcal/mol and an excess molar enthalpy (313.15 K, 100 kPa, x1 = 0.549) of 0.5667 ± 0.00454 kcal/mol. For the same molecule, the excess molar enthalpy (313.15 K, 100 kPa, x1 = 0.6) was 0.5459 ± 0.00454 kcal/mol, the excess molar enthalpy (313.15 K, 100 kPa, x1 = 0.651) was 0.5157 ± 0.0043 kcal/mol and the excess molar enthalpy (313.15 K, 100 kPa, x1 = 0.699) was 0.4762 ± 0.0043 kcal/mol. It also gave an excess molar enthalpy (313.15 K, 100 kPa, x1 = 0.751) of 0.427 ± 0.00406 kcal/mol, an excess molar enthalpy (313.15 K, 100 kPa, x1 = 0.8) of 0.368 ± 0.00406 kcal/mol and an excess molar enthalpy (313.15 K, 100 kPa, x1 = 0.85) of 0.299 ± 0.00406 kcal/mol. For the same molecule, the excess molar enthalpy (313.15 K, 100 kPa, x1 = 0.899) was 0.204 ± 0.0043 kcal/mol, the excess molar enthalpy (313.15 K, 100 kPa, x1 = 0.949) was 0.108 ± 0.00406 kcal/mol and the excess molar enthalpy (313.15 K, 1000 kPa, x1 = 0.049) was 0.127 ± 0.00454 kcal/mol. The excess molar enthalpy (313.15 K, 1000 kPa, x1 = 0.099) was 0.238 ± 0.00454 kcal/mol, the excess molar enthalpy (313.15 K, 1000 kPa, x1 = 0.149) was 0.331 ± 0.0043 kcal/mol and the excess molar enthalpy (313.15 K, 1000 kPa, x1 = 0.199) was 0.406 ± 0.0043 kcal/mol. For the same molecule, the excess molar enthalpy (313.15 K, 1000 kPa, x1 = 0.25) was 0.4659 ± 0.0043 kcal/mol, the excess molar enthalpy (313.15 K, 1000 kPa, x1 = 0.299) was 0.5082 ± 0.0043 kcal/mol and the excess molar enthalpy (313.15 K, 1000 kPa, x1 = 0.35) was 0.5426 ± 0.00454 kcal/mol. It also gave an excess molar enthalpy (313.15 K, 1000 kPa, x1 = 0.399) of 0.5625 ± 0.00454 kcal/mol, an excess molar enthalpy (313.15 K, 1000 kPa, x1 = 0.449) of 0.572 ± 0.00454 kcal/mol and an excess molar enthalpy (313.15 K, 1000 kPa, x1 = 0.499) of 0.5728 ± 0.00454 kcal/mol. The excess molar enthalpy (313.15 K, 1000 kPa, x1 = 0.549) was 0.5639 ± 0.00454 kcal/mol, the excess molar enthalpy (313.15 K, 1000 kPa, x1 = 0.6) was 0.5428 ± 0.00454 kcal/mol and the excess molar enthalpy (313.15 K, 1000 kPa, x1 = 0.651) was 0.5125 ± 0.0043 kcal/mol. For the same molecule, the excess molar enthalpy (313.15 K, 1000 kPa, x1 = 0.699) was 0.4734 ± 0.0043 kcal/mol, the excess molar enthalpy (313.15 K, 1000 kPa, x1 = 0.751) was 0.4239 ± 0.00406 kcal/mol and the excess molar enthalpy (313.15 K, 1000 kPa, x1 = 0.8) was 0.368 ± 0.00406 kcal/mol. The excess molar enthalpy (313.15 K, 1000 kPa, x1 = 0.849) was 0.296 ± 0.00406 kcal/mol, the excess molar enthalpy (313.15 K, 1000 kPa, x1 = 0.899) was 0.206 ± 0.0043 kcal/mol and the excess molar enthalpy (313.15 K, 1000 kPa, x1 = 0.949) was 0.105 ± 0.00406 kcal/mol. It also gave an excess molar enthalpy (313.15 K, 10000 kPa, x1 = 0.049) of 0.124 ± 0.00454 kcal/mol, an excess molar enthalpy (313.15 K, 10000 kPa, x1 = 0.101) of 0.24 ± 0.00454 kcal/mol and an excess molar enthalpy (313.15 K, 10000 kPa, x1 = 0.151) of 0.332 ± 0.0043 kcal/mol. The excess molar enthalpy (313.15 K, 10000 kPa, x1 = 0.202) was 0.405 ± 0.0043 kcal/mol, the excess molar enthalpy (313.15 K, 10000 kPa, x1 = 0.249) was 0.4604 ± 0.0043 kcal/mol and the excess molar enthalpy (313.15 K, 10000 kPa, x1 = 0.3) was 0.5061 ± 0.0043 kcal/mol. For the same molecule, the excess molar enthalpy (313.15 K, 10000 kPa, x1 = 0.349) was 0.5364 ± 0.00454 kcal/mol, the excess molar enthalpy (313.15 K, 10000 kPa, x1 = 0.401) was 0.5586 ± 0.00454 kcal/mol and the excess molar enthalpy (313.15 K, 10000 kPa, x1 = 0.451) was 0.5694 ± 0.00454 kcal/mol. It also gave an excess molar enthalpy (313.15 K, 10000 kPa, x1 = 0.501) of 0.5711 ± 0.00454 kcal/mol, an excess molar enthalpy (313.15 K, 10000 kPa, x1 = 0.551) of 0.5597 ± 0.00454 kcal/mol and an excess molar enthalpy (313.15 K, 10000 kPa, x1 = 0.602) of 0.5408 ± 0.00454 kcal/mol. It also gave an excess molar enthalpy (313.15 K, 10000 kPa, x1 = 0.65) of 0.513 ± 0.00454 kcal/mol, an excess molar enthalpy (313.15 K, 10000 kPa, x1 = 0.75) of 0.4247 ± 0.00406 kcal/mol and an excess molar enthalpy (313.15 K, 10000 kPa, x1 = 0.799) of 0.368 ± 0.00406 kcal/mol. It also gave an excess molar enthalpy (313.15 K, 10000 kPa, x1 = 0.849) of 0.293 ± 0.00406 kcal/mol, an excess molar enthalpy (313.15 K, 10000 kPa, x1 = 0.899) of 0.21 ± 0.0043 kcal/mol and an excess molar enthalpy (313.15 K, 10000 kPa, x1 = 0.949) of 0.105 ± 0.0043 kcal/mol. It also gave an excess molar enthalpy (328.15 K, 1000 kPa, x1 = 0.05) of 0.129 ± 0.00478 kcal/mol, an excess molar enthalpy (328.15 K, 1000 kPa, x1 = 0.1) of 0.243 ± 0.00478 kcal/mol and an excess molar enthalpy (328.15 K, 1000 kPa, x1 = 0.15) of 0.341 ± 0.00454 kcal/mol. For the same molecule, the excess molar enthalpy (328.15 K, 1000 kPa, x1 = 0.2) was 0.418 ± 0.00478 kcal/mol, the excess molar enthalpy (328.15 K, 1000 kPa, x1 = 0.25) was 0.4826 ± 0.00478 kcal/mol and the excess molar enthalpy (328.15 K, 1000 kPa, x1 = 0.3) was 0.531 ± 0.00502 kcal/mol. It also gave an excess molar enthalpy (328.15 K, 1000 kPa, x1 = 0.35) of 0.5685 ± 0.00502 kcal/mol, an excess molar enthalpy (328.15 K, 1000 kPa, x1 = 0.4) of 0.5957 ± 0.00526 kcal/mol and an excess molar enthalpy (328.15 K, 1000 kPa, x1 = 0.45) of 0.6082 ± 0.00526 kcal/mol. The excess molar enthalpy (328.15 K, 1000 kPa, x1 = 0.5) was 0.6094 ± 0.00526 kcal/mol, the excess molar enthalpy (328.15 K, 1000 kPa, x1 = 0.55) was 0.602 ± 0.00502 kcal/mol and the excess molar enthalpy (328.15 K, 1000 kPa, x1 = 0.6) was 0.5832 ± 0.00478 kcal/mol. The excess molar enthalpy (328.15 K, 1000 kPa, x1 = 0.65) was 0.5542 ± 0.00454 kcal/mol, the excess molar enthalpy (328.15 K, 1000 kPa, x1 = 0.7) was 0.513 ± 0.0043 kcal/mol and the excess molar enthalpy (328.15 K, 1000 kPa, x1 = 0.75) was 0.4578 ± 0.00382 kcal/mol. It also gave an excess molar enthalpy (328.15 K, 1000 kPa, x1 = 0.8) of 0.3918 ± 0.00335 kcal/mol, an excess molar enthalpy (328.15 K, 1000 kPa, x1 = 0.85) of 0.3191 ± 0.00263 kcal/mol and an excess molar enthalpy (328.15 K, 1000 kPa, x1 = 0.9) of 0.2231 ± 0.00191 kcal/mol. It also gave an excess molar enthalpy (328.15 K, 1000 kPa, x1 = 0.95) of 0.114 ± 0.0011 kcal/mol.
